Laboratory results as given in patent US3948885A, “5-Hydroxyl-1,2,3-triazole-4-carboxamide nucleoside” (ICN Pharmaceuticals, Inc., priority 1973, dated 1976).
Entries after “also recorded” stand apart in the source; their conditions may differ. Where two headings read alike, the source gives them in different places.

Legend:
[1] = tested on: Type 1 herpes simplex; experiment: In vitro activity against Type 1 herpes simplex, virus rating (VR) method of Sidwell et al; assay type: cell-based; conditions: for virus rating (VR): method of Sidwell et al. Appl. Microbiol. 22, 797 (1971)
[2] = tested on: measles virus; experiment: Plaque inhibition (measles virus); assay type: cell-based; conditions: for inhibition at 20 µg/mL / inhibition at 100 µg/mL / inhibition at 500 µg/mL: Measles morbillivirus, 96 h, VERO cells, 4 days at 37°C, >=50% definite, 20 to 50 moderate, <20% little or no antiviral activity; for inhibition at 20 µg/mL: read-out: Percent Plaque Inhibition at 20 µg/mL; for inhibition at 100 µg/mL: read-out: Percent Plaque Inhibition at 100 µg/mL; for inhibition at 500 µg/mL: read-out: Percent Plaque Inhibition at 500 µg/mL
[3] = literature; cited from earlier work
[4] = D. C. Delong et al, 1971; cited from earlier work

Row | SMILES | activity against Type 1 herpes simplex (in words) ([1]; Sodium Salt Monohydrate) | virus rating (VR) [1] | inhibition at 20 µg/mL [2] | inhibition at 100 µg/mL [2] | inhibition at 500 µg/mL [2] | activity against Type 1 herpes simplex (in words) [1] | activity against measles virus (in words) ([2]; in vitro) | antiviral activity (in words) [3] | toxicity associated with employment in vivo (in words) [4]
1 | O.[NH-]C(=O)c1[nH]nnc1O.[Na+] [Compound 4, 4-Hydroxy-1,2,3-triazole-5-carboxamide Sodium Salt Monohydrate] | active | 0.5 | – | – | – | – | – | – | –
2 | NC(=O)c1nn([C@@H]2O[C@H](CO)[C@@H](O)[C@H]2O)nc1O [Compound 2, 5-Hydroxy-2-β-D-ribofuranosyl-1,2,3-triazole-4-carboxamide] | – | – | 0% | 0% | 5% | – | – | – | –
3 | NC(=O)c1[nH]nnc1O [Compound 3, 4-Hydroxy-1,2,3-triazole-5-carboxamide] | – | 0.6 | 33% | 60% | 89% | active | – | – | –
4 | NC(=O)c1nnn([C@@H]2O[C@H](CO)[C@@H](O)[C@H]2O)c1O [Compound 1, 5-Hydroxy-1-β-D-ribofuranosyl-1,2,3-triazole-4-carboxamide] | – | 0.6 | 33% | 84% | 100% | exhibited in vitro activity; also recorded: active | exhibited in vitro activity | – | –
5 | NC(=O)c1ncn([C@@H]2O[C@H](CO)[C@@H](O)[C@H]2O)n1 [1-β-D-ribofuranosyl-1,2,4-triazole-3-carboxamide] | – | – | – | – | – | – | – | substantial range of antiviral activity | –
6 | NC(=O)c1[nH]nc([C@@H]2O[C@H](CO)[C@@H](O)[C@H]2O)c1O [pyrazomycin] | – | – | – | – | – | – | – | exhibits a substantial range of antiviral activity | a degree of toxicity
